Experiment [1] concerns the target T1, Mu-type opioid receptor (Homo sapiens, UniProt P35372). Briefly: Displacement of [3H]DAMGO from mu opioid receptor expressed in HEK293 cells relative to DAMGO. Also noted: concentration or dose not given beside the values. It counts as cell-based.
For experiment [2], the target named is T2, Delta-type opioid receptor (Homo sapiens, UniProt P41143). Kind of experiment: Displacement of [3H]DADLE from delta opioid receptor expressed in HEK293 cells relative to DADLE. Also noted: concentration or dose not given beside the values. It counts as cell-based.
The target of experiment [3] is T3, Kappa-type opioid receptor (Homo sapiens, UniProt P41145). Briefly: Displacement of [3H]diprenorphine from kappa opioid receptor expressed in HEK293 cells relative to salvinorin A. It counts as cell-based. Further details: concentration or dose not given beside the values. A general note: Loss of bound radioactivity is the signal in a displacement assay; it reports binding, not function.

In experiment [4] the target is T3, Kappa-type opioid receptor. Kind of experiment: Displacement of [3H]U69593 from kappa opioid receptor expressed in HEK293 cells relative to salvinorin A. The class given is cell-based. Also noted: concentration or dose not given beside the values.
The target of experiment [5] is T3, Kappa-type opioid receptor. Kind of experiment: Agonist activity at kappa opioid receptor expressed in HEK293 cells by [35S]GTPgammaS binding assay relative to salvinorin A. It counts as functional, cell-based. In general terms: GTPγS is a poorly hydrolysed GTP analogue; its binding reports G protein activation.
In experiment [6] the target is T3, Kappa-type opioid receptor. Briefly: Displacement of [3H]U69593 from kappa opioid receptor expressed in HEK293 cells. The class given is cell-based.
In experiment [7] the target is T2, Delta-type opioid receptor. Briefly: Displacement of [3H]DADLE from delta opioid receptor expressed in HEK293 cells. The class given is cell-based.
A short description of experiment [8]: Selectivity ratio of Ki for delta opioid receptor to Ki for kappa opioid receptor.
Experiment [9] can be described thus: Selectivity ratio of Ki for mu opioid receptor to Ki for kappa opioid receptor.
Experiment [10] deals with T1, Mu-type opioid receptor. Briefly: Displacement of [3H]DAMGO from mu opioid receptor expressed in HEK293 cells. It counts as cell-based.
Experiment [11] addresses T3, Kappa-type opioid receptor. Kind of experiment: Agonist activity at kappa opioid receptor expressed in HEK293 cells by [35S]GTPgammaS binding assay. The class given is functional, cell-based.

Broadly, the Emax is the greatest response seen or fitted, relative to the assay's reference. By Ki is commonly meant a dissociation constant, usually derived from enzyme kinetics or from competition with a known ligand. By EC50 is commonly meant the concentration at which the effect is half-maximal.

T3 sequence (P41145 whole entry): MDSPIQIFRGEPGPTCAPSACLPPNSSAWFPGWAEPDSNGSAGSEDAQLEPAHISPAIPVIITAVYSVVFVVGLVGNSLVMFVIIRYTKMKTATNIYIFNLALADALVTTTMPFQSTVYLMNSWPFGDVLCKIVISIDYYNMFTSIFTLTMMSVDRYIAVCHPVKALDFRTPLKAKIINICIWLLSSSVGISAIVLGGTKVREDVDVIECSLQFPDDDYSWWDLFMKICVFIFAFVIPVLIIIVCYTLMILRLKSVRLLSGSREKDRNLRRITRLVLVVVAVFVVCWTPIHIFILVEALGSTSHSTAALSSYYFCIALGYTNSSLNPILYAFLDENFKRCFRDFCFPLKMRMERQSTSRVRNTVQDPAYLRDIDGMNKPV
T2 sequence (P41143 whole entry): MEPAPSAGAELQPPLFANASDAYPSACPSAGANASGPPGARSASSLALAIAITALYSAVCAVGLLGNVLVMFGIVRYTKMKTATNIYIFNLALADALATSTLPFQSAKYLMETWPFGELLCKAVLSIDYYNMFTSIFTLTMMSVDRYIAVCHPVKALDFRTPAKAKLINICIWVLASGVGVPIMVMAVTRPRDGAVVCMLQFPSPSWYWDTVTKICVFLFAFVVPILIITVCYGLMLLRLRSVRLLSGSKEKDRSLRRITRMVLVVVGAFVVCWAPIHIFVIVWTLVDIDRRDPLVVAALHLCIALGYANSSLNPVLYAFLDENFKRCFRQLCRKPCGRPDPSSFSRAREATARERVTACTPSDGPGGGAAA
T1 sequence (P35372 whole entry): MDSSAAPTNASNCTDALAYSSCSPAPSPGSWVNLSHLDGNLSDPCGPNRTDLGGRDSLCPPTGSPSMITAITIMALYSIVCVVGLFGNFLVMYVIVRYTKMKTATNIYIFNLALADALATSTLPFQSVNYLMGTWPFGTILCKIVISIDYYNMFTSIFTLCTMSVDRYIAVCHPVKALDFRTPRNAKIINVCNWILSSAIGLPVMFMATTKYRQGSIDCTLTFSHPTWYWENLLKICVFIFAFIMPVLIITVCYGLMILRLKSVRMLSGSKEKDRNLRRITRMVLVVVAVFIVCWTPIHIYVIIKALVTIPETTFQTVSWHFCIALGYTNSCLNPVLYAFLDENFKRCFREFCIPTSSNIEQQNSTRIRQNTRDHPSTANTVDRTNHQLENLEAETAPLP

Turning to `COC(=O)[C@@H]1C[C@H](OC(=O)CN)C(=O)[C@H]2[C@@]1(C)CC[C@H]1C(=O)O[C@H](c3ccoc3)C[C@]21C`, the Activity was -5% on Mu-type opioid receptor [1], 17% in [2], 0% in experiment [3] and 41% in experiment [4].

As to `COC(=O)[C@@H]1C[C@H](OC(=O)CCCN)C(=O)[C@H]2[C@@]1(C)CC[C@H]1C(=O)O[C@H](c3ccoc3)C[C@]21C`, the Activity is 1% on Mu-type opioid receptor [1], 28% in experiment [2], 0% in [3] and 48% in experiment [4].

Take `COC(=O)[C@@H]1C[C@H](OC(=O)[C@@H](NC(=O)OCC2c3ccccc3-c3ccccc32)[C@H](C)OC(C)(C)C)C(=O)[C@H]2[C@@]1(C)CC[C@H]1C(=O)O[C@H](c3ccoc3)C[C@]21C`: the Activity at Mu-type opioid receptor [1] was found to be 18%; in [2], 8%; in experiment [3], 12%; in experiment [4], 28%.

Consider `Oc1ccc2c3c1O[C@H]1c4[nH]c5ccccc5c4C[C@@]4(O)[C@@H](C2)N(CC2CC2)CC[C@]314`, for which the Activity in [2] is 100%.

On to `COC(=O)[C@@H]1C[C@H](OC(=O)CCCNC(=O)OCC2c3ccccc3-c3ccccc32)C(=O)[C@H]2[C@@]1(C)CC[C@H]1C(=O)O[C@H](c3ccoc3)C[C@]21C`, for which the Activity on Mu-type opioid receptor [1] stood at 27%; in experiment [2], 24%; in experiment [3], 0%; in [4] it was 10%.

As for `COC(=O)[C@@H]1C[C@H](OC(=O)[C@@H](N)[C@H](C)OC(C)(C)C)C(=O)[C@H]2[C@@]1(C)CC[C@H]1C(=O)O[C@H](c3ccoc3)C[C@]21C`, the Activity at Mu-type opioid receptor [1] stood at 2%; in experiment [2] it was 11%; in experiment [3], 0%; in experiment [4], 6%.

Turning to `COC(=O)[C@@H]1C[C@H](OC(=O)[C@@H](N)Cc2ccccc2)C(=O)[C@H]2[C@@]1(C)CC[C@H]1C(=O)O[C@H](c3ccoc3)C[C@]21C`, the Activity is -6% at Mu-type opioid receptor [1], 13% in experiment [2], 0% in experiment [3] and 19% in [4].

For `COC(=O)[C@@H]1C[C@H](OC(=O)[C@H](Cc2ccccc2)NC(=O)OCC2c3ccccc3-c3ccccc32)C(=O)[C@H]2[C@@]1(C)CC[C@H]1C(=O)O[C@H](c3ccoc3)C[C@]21C`, the Activity at Mu-type opioid receptor [1] was 0.5%; in experiment [2] it was 3%; in experiment [3], 34%; in [4] it was 0%.

On to `COC(=O)[C@@H]1C[C@H](OC(=O)CNC(=O)OCC2c3ccccc3-c3ccccc32)C(=O)[C@H]2[C@@]1(C)CC[C@H]1C(=O)O[C@H](c3ccoc3)C[C@]21C`, for which the Activity is 20% at Mu-type opioid receptor [1], 16% in [2], 10% in [3] and 4% in experiment [4].

Turning to `COC(=O)[C@@H]1C[C@H](OC(=O)[C@@H](N)C(C)C)C(=O)[C@H]2[C@@]1(C)CC[C@H]1C(=O)O[C@H](c3ccoc3)C[C@]21C`, the Emax in experiment [5] was 118%; in [11], 828%. For the same compound, the Activity on Mu-type opioid receptor [1] amounted to 5%; in experiment [2] it was 48%; in experiment [3], 91%; in experiment [4] it was 103%. Further, the values for the inhibition constant Ki (in experiment [6]; in experiment [7]; on Mu-type opioid receptor [10]) were 0.042 µM, > 10 µM and > 10 µM, respectively. Besides, the Ratio Ki in experiment [8] and in [9] was > 238 in each case. This compound also came in with an EC50 in experiment [11] of 0.213 µM.

Take `COC(=O)[C@@H]1C[C@H](OC(=O)[C@H](C)N)C(=O)[C@H]2[C@@]1(C)CC[C@H]1C(=O)O[C@H](c3ccoc3)C[C@]21C`: the Activity on Mu-type opioid receptor [1] was -1.6%; in [2], 18%; in experiment [3], 0%; in experiment [4] it was 82%. The inhibition constant (Ki) in [6] was 3.78 µM; in [7] it was > 10 µM; on Mu-type opioid receptor [10], > 10 µM. The Ratio Ki in experiment [8] and in [9] was > 2.64 in each case.

With `COC(=O)[C@@H]1C[C@H](OC(=O)[C@@H](NC(=O)OCC2c3ccccc3-c3ccccc32)C(C)C)C(=O)[C@H]2[C@@]1(C)CC[C@H]1C(=O)O[C@H](c3ccoc3)C[C@]21C`, the Activity at Mu-type opioid receptor [1] worked out at 15%; in experiment [2] it was 22%; in experiment [3] it was 0%; in experiment [4], 39%.

For the compound `COC(=O)[C@@H]1C[C@H](OC(=O)[C@H](C)NC(=O)OCC2c3ccccc3-c3ccccc32)C(=O)[C@H]2[C@@]1(C)CC[C@H]1C(=O)O[C@H](c3ccoc3)C[C@]21C`, the Activity at Mu-type opioid receptor [1] is 24%; in experiment [2], 15%; in [3], 0%; in [4], 21%.

The values are drawn from ChEMBL document CHEMBL1641545 (Bioorg Med Chem Lett, 2011).
